The test system of assay [1] is HeLa. The experiment in a line: Inhibition of cell adhesion in human HeLa cells assessed as reduction in cell attachment up to 8 uM after 1 hr by MTT assay. It counts as functional, cell-based.
In assay [2] the test system is HeLa. The assay can be described thus: Inhibition of PGE2 secretion in human HeLa cells at 0.1 uM after 24 hrs by EIA monoclonal assay. It counts as functional, cell-based.
The subject of assay [3] is HeLa. The experiment in a line: cells. The note with it: Homo sapiens, 24 h.
Description: Antiproliferative activity against human HeLa cells after 24 hrs by MTT assay
The next assay deals with HepG2. The assay can be described thus: cells. The following applies: Homo sapiens, HepG2, 24 h.
The nature of assay [4]: cells. The following applies: Mus musculus, B16-F10, 24 h.
Description: Antiproliferative activity against mouse B16F10 cells after 24 hrs by MTT assay
For the next assay, the system named is A549. The experiment in a line: cells. The note with it: Homo sapiens, A549, 24 h.
Assay [5] in a line: cells. The note with it: Homo sapiens, HEK-293T, 24 h.
Description: Antiproliferative activity against human 293T cells after 24 hrs by MTT assay
The nature of assay [6]: cells. The note with it: Homo sapiens, L02, 24 h.
Description: Antiproliferative activity against human LO2 cells after 24 hrs by MTT assay

Activity calls are given as the source filed them. The calls are words filed in the database; no cut-off is given here.

Broadly, the IC50 is the concentration needed to halve the response being measured. A low value points to greater potency.

Description for A549: Antiproliferative activity against human A549 cells after 24 hrs by MTT assay
Description for HepG2: Antiproliferative activity against human HepG2 cells after 24 hrs by MTT assay

`Cc1ccc(-c2cc(C(F)(F)F)nn2-c2ccc(S(N)(=O)=O)cc2)cc1` [CELECOXIB]: the inhibition entry in the assay with HeLa [1] is “inactive”. Moreover, the inhibition entry in the assay on HeLa [2] is “Active”. Moreover, the IC50 in the assay on HeLa [3] came to 7.79 µM; in the assay with HepG2, 10 µM; in the assay “cells [4]” it was 14.4 µM; in the assay on A549, 15.6 µM; in the assay “cells [5]” it was 95.3 µM; in the assay “cells [6]” it was 98.2 µM.

These data come from ChEMBL document CHEMBL3822383, “Coumarin sulfonamides derivatives as potent and selective COX-2 inhibitors with efficacy in suppressing cancer proliferation and metastasis” (Bioorg Med Chem Lett, 2016).
